Tests used:
[1] = test system: HTLV-1-infected cell line, MT2; experiment: Combination of abacavir and topoisomerase inhibitor, cellular proliferation (MTS), MT2; assay type: cell-based; settings: 48 hours, abacavir 10 or 25 μM plus CPT-11 200-400 pM, VP16 100-500 nM or ADR 10-50 nM
Method: An HTLV-1-infected cell line, MT2 cell, was used. Abacavir was added at a concentration of 0 μM (DMSO was added instead of abacavir), 10 μM, or 25 μM, and to each of the samples, CPT-11 (generic name: irinotecan) was further added at a concentration of 0 pM, 200 pM, 300 pM, or 400 pM. The cells were cultured for 48 hours. Separately, abacavir was added to MT2 cells at the concentrations as described above, and VP16 (generic name: etoposide) was further added to each of the samples at a concentration of 0 nM, 100 nM, 250 nM, or 500 nM, followed by 48 hours culture. Separately, abacavir was added to MT2 cells at the concentrations as described above, and ADR (generic name: doxorubicin) was further added at a concentration of 0 nM, 10 nM, 25 nM, or 50 nM, followed by 48 hours culture. MTS assay was performed using a reagent for cellular proliferation test, Aqueous One Solution Cell Proliferation (trade name, manufactured by Promega), in the same manner as in Example 1.
The graphs (A), (B), and (c) show the results of combinations of abacavir (ABC in the graph) and CPT-11, abacavir and VP16, and abacavir and ADR, respectively. In the graphs, the vertical axis indicates the proliferation rate calculated from the cell number when the cell number at the administration of the agents was regarded as 1.

[2] = test system: ATL cell line, ED40515 (−); experiment: PARP inhibitor combination, cellular proliferation (MTS), ED40515 (−); assay type: cell-based; settings: olaparib 1-1000 μM with abacavir 10, 50 or 100 μM, 48 hours
Method: (§1) To an ATL cell line, ED40515 (−), or a non-ATL cell line, Jurkat, abacavir was added at a concentration of 0 μM (DMSO, was added instead of abacavir), 10 μM, 50 μM or 100 μM, and further a PARP inhibitor, olaparib, was added at a concentration of 0 μM (DMSO was added instead of olaparib), 1 μM, 10 μM, 100 μM or 1000 μM. The cells were cultured for 48 hours. MTS assay was performed using a reagent for cellular proliferation test, Aqueous One Solution Cell Proliferation (trade name, manufactured by Promega), in the same manner as in Example 1. The cellular proliferation was represented by a ratio relative to that of the control (solvent control) on Day 0 that was regarded as 1.

[3] = test system: non-ATL cell line, Jurkat; experiment: PARP inhibitor combination, cellular proliferation (MTS), Jurkat; assay type: cell-based, human; settings: olaparib 1-1000 μM, 48 hours
Method: as §1

ATL cells = settings: in vitro; Non Patent Literature 4; cited from earlier work
[4] = test system: ATL cell line, ED40515 (−); experiment: Chromosome double-strand break (Giemsa chromosome specimens), ED40515 (−); assay type: cell-based; settings: 48 hours, abacavir 10-100 μM, zidovudine 10 or 100 μM
Method: Abacavir was added to an ATL cell line, ED40515 (−), at a concentration of 0 μM (DMSO was added instead of abacavir), 10 μM, 25 μM, 50 μM, 75 μM or 100 μM. After the 48 hours culture, the cells were fixed by Carnoy and stained with Giemsa to prepare chromosome specimens in accordance with conventional methods. Similarly, zidovudine was added to ED40515 (−) at a concentration of 10 μM or 100 μM, and abacavir was added to a non-ATL cell line, Jurkat, at a concentration of 100 μM, and chromosome specimens were prepared. Chromosome images (100 or more images per group) were observed by an optical microscope. The cells were determined as being positive for double-strand break (DSB) when at least one chromosome break was found.

SMILES: COc1cc([C@@H]2c3cc4c(cc3[C@@H](O[C@@H]3O[C@@H]5CO[C@@H](C)O[C@H]5[C@H](O)[C@H]3O)[C@H]3COC(=O)[C@H]23)OCO4)cc(OC)c1O [VP16, etoposide]
- cellular proliferation (proliferation rate) in combination with abacavir [1]: significantly suppressed cellular proliferation

SMILES: O=C(c1cc(Cc2n[nH]c(=O)c3ccccc23)ccc1F)N1CCN(C(=O)C2CC2)CC1 [olaparib]
- effect of PARP inhibitor on suppression of cellular proliferation by abacavir [2]: enhanced the suppressive effect of abacavir
- cellular proliferation [3]: did not affect cellular proliferation

SMILES: CCc1c2c(nc3ccc(OC(=O)N4CCC(N5CCCCC5)CC4)cc13)-c1cc3c(c(=O)n1C2)COC(=O)[C@]3(O)CC [CPT-11, irinotecan]
- cellular proliferation (proliferation rate) in combination with abacavir [1]: significantly suppressed cellular proliferation

SMILES: COc1cccc2c1C(=O)c1c(O)c3c(c(O)c1C2=O)C[C@@](O)(C(=O)CO)C[C@@H]3O[C@H]1C[C@H](N)[C@H](O)[C@H](C)O1 [ADR, doxorubicin]
- cellular proliferation (proliferation rate) in combination with abacavir [1]: significantly suppressed cellular proliferation

SMILES: Cc1cn([C@H]2C[C@H](N=[N+]=[N-])[C@@H](CO)O2)c(=O)[nH]c1=O [zidovudine]
- anti-cancer effect against ATL cells (ATL cells): no anti-cancer effect
- ratio of double-strand break-positive cells [4]: did not induce double-strand break
